# ChEMBL document CHEMBL5665443, “Enzyme Inhibitor Single Concentration assay results for EUbOPEN Chemogenomics Library” (2024)
# How the values were obtained:
# [1] = molecular target: Uracil-DNA glycosylase (Homo sapiens) (UniProt P13051); settings: Compound Concentration 10.0 uM, Hit No;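 further: UNG excision on a quenched double-stranded DNA oligo probe, with APE1 added for strand incision and turnover, read as fluorescence at 594 nm as strands separate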
# Description: Inhibition of UNG by quantifying inhibition of UNG-mediated cleavage and dissociation of quenched duplex DNA oligonucleotides, measured as fluorescence at 594 nm. To generate a functional strand incision and increase turn-over this assay is coupled to APE1.
# [2] = molecular target: G/T mismatch-specific thymine DNA glycosylase (Homo sapiens) (UniProt Q13569); settings: Compound Concentration 10.0 uM;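 further: human TDG cleavage of quenched duplex DNA oligonucleotides coupled to APE1, strand release read as fluorescence at 594 nm, inhibition of TDG activity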
# G/T mismatch-specific thymine DNA glycosylase (Homo sapiens), sequence (Q13569 whole entry, the tested form may be a part): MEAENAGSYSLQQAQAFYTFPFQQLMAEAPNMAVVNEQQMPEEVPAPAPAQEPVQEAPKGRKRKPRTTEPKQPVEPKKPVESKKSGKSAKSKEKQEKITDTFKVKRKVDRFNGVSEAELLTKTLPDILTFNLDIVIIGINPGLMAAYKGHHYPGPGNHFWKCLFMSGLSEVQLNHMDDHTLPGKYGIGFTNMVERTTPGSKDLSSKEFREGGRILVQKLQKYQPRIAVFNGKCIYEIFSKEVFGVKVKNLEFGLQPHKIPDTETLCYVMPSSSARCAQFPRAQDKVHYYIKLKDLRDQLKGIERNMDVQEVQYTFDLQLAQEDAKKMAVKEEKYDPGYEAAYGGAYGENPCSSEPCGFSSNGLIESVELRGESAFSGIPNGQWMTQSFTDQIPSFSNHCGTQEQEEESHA
# Description: Inhibition of TDG by quantifying inhibition of TDG-mediated cleavage and dissociation of quenched duplex DNA oligonucleotides, measured as fluorescence at 594 nm. To generate a functional strand incision and increase turn-over this assay is coupled to APE1.
# [3] = molecular target: Methyl-CpG-binding domain protein 4 (Homo sapiens) (UniProt O95243); settings: Compound Concentration 10.0 uM;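 further: MBD4 activity read as fluorescence at 594 nm from cleavage and release of a quenched duplex DNA oligonucleotide, with APE1 coupled to incise the strand and raise turnover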
# Methyl-CpG-binding domain protein 4 (Homo sapiens), sequence (O95243 whole entry, the tested form may be a part): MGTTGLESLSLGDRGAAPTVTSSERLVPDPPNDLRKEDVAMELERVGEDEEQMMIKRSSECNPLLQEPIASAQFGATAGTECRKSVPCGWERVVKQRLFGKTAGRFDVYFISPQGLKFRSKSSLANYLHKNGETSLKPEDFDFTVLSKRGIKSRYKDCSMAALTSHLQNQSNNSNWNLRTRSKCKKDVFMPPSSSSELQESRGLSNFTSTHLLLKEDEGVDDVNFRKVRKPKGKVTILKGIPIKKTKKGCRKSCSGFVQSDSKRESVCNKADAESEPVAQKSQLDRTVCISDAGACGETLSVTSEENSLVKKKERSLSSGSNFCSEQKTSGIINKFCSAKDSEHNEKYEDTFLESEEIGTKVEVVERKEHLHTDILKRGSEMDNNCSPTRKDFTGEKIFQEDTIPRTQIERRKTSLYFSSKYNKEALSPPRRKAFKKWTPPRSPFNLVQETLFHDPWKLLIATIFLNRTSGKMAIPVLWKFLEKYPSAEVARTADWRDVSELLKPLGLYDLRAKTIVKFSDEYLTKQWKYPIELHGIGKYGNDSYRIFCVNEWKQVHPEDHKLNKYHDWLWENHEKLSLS
# Description: Inhibition of MBD4 by quantifying inhibition of MBD4-mediated cleavage and dissociation of quenched duplex DNA oligonucleotides, measured as fluorescence at 594 nm. To generate a functional strand incision and increase turn-over this assay is coupled to APE1.
# [4] = molecular target: DNA-3-methyladenine glycosylase (Homo sapiens) (UniProt P29372); settings: Compound Concentration 10.0 uM, Hit No;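 further: enzyme assay where MPG cuts a quenched duplex DNA oligonucleotide probe, paired with APE1 for strand incision and turnover, read as fluorescence at 594 nm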
# DNA-3-methyladenine glycosylase (Homo sapiens), sequence (P29372 whole entry): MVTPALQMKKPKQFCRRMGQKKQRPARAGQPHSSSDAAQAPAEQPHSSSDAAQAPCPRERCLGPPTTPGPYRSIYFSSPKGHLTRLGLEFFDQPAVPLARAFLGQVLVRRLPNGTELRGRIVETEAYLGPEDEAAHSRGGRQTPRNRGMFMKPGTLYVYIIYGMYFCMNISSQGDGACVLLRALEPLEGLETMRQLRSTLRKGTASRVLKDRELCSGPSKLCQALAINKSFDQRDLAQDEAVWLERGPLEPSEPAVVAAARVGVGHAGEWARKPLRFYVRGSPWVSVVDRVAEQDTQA
# Description: Inhibition of MPG by quantifying inhibition of MPG-mediated cleavage and dissociation of quenched duplex DNA oligonucleotides, measured as fluorescence at 594 nm. To generate a functional strand incision and increase turn-over this assay is coupled to APE1.
# [5] = molecular target: N-glycosylase/DNA lyase (Homo sapiens) (UniProt O15527); settings: Compound Concentration 10.0 uM;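 further: OGG1 cleavage of a quenched duplex DNA oligonucleotide, coupled to APE1 for strand incision, read as fluorescence at 594 nm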
# N-glycosylase/DNA lyase (Homo sapiens), sequence (O15527 whole entry): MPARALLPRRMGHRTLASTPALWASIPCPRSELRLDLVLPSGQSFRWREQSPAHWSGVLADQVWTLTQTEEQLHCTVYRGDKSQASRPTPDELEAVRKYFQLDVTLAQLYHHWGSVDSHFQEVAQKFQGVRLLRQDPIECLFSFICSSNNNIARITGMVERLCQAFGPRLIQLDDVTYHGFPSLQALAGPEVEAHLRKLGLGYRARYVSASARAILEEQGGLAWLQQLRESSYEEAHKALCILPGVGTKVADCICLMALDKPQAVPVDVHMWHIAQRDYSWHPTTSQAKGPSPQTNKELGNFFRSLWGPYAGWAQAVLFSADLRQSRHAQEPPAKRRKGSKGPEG
# Description: Inhibition of OGG1 by quantifying inhibition of OGG1-mediated cleavage and dissociation of quenched duplex DNA oligonucleotides, measured as fluorescence at 594 nm. To generate a functional strand incision and increase turn-over this assay is coupled to APE1.
# [6] = molecular target: T1, Single-strand selective monofunctional uracil DNA glycosylase (Homo sapiens) (UniProt Q53HV7); settings: Compound Concentration 10.0 uM;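 further: enzymatic SMUG1 assay coupled with APE1, reading fluorescence at 594 nm released when a quenched double-stranded DNA oligonucleotide substrate is cleaved and separated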
# T1 sequence (whole entry): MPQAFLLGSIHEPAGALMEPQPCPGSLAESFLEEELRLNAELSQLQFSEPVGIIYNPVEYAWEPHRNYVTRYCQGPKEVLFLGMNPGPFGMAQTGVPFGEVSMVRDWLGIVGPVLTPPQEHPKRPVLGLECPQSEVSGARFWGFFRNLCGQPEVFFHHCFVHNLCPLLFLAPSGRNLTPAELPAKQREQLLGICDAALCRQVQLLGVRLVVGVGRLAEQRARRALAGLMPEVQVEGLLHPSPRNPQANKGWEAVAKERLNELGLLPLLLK
# Description: Inhibition of SMUG1 by quantifying inhibition of SMUG1-mediated cleavage and dissociation of quenched duplex DNA oligonucleotides, measured as fluorescence at 594 nm. To generate a functional strand incision and increase turn-over this assay is coupled to APE1.
# [7] = molecular target: T2, Adenine DNA glycosylase (Homo sapiens) (UniProt Q9UIF7); settings: Compound Concentration 10.0 uM, Hit No;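 further: human MUTYH activity read as 594 nm fluorescence from cleavage and release of a quenched DNA duplex, coupled with APE1 for strand incision, lower signal meaning inhibition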
# T2 sequence (whole entry): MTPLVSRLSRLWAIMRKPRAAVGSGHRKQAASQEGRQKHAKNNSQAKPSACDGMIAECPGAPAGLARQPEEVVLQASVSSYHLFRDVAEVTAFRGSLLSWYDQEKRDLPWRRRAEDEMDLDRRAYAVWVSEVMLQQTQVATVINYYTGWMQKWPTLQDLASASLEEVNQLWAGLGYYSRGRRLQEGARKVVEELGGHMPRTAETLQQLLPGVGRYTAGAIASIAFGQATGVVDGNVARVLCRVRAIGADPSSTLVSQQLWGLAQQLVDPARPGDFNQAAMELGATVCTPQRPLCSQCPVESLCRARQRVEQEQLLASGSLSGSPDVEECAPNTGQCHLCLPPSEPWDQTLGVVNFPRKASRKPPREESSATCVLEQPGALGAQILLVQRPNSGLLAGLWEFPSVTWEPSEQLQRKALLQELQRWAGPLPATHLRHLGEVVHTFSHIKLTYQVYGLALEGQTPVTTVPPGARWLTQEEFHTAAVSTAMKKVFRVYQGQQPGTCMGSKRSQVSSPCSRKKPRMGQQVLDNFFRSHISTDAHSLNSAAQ
# Description: Inhibition of MUTYH by quantifying inhibition of MUTYH-mediated cleavage and dissociation of quenched duplex DNA oligonucleotides, measured as fluorescence at 594 nm. To generate a functional strand incision and increase turn-over this assay is coupled to APE1.
# [8] = molecular target: Endonuclease 8-like 1 (Homo sapiens) (UniProt Q96FI4); settings: Compound Concentration 10.0 uM, Hit No;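 further: fluorescence at 594 nm from quenched duplex DNA oligonucleotides released by NEIL1 cleavage and strand separation, reported as reduction of this enzyme activity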
# Endonuclease 8-like 1 (Homo sapiens), sequence (Q96FI4 whole entry): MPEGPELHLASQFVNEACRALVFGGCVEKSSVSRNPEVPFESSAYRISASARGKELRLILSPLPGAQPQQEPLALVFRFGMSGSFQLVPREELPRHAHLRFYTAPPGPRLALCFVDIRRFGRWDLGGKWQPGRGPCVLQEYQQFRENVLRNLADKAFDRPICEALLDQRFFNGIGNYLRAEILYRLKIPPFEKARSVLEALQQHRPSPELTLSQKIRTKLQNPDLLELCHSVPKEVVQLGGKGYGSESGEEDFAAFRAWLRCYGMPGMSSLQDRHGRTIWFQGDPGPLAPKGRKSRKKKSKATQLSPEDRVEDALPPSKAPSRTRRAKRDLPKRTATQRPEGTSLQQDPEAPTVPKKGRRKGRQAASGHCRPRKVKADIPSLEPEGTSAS
# Description: Inhibition of NEIL1 by quantifying inhibition of NEIL1-mediated cleavage and dissociation of quenched duplex DNA oligonucleotides, measured as fluorescence at 594 nm.
# [9] = molecular target: T3, Endonuclease 8-like 2 (Homo sapiens) (UniProt Q969S2); settings: Compound Concentration 10.0 uM, Hit No;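 further: fluorescence at 594 nm reports NEIL2 cutting and release of a quenched double-stranded DNA oligo substrate, reduced signal read as inhibition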
# T3 sequence (whole entry): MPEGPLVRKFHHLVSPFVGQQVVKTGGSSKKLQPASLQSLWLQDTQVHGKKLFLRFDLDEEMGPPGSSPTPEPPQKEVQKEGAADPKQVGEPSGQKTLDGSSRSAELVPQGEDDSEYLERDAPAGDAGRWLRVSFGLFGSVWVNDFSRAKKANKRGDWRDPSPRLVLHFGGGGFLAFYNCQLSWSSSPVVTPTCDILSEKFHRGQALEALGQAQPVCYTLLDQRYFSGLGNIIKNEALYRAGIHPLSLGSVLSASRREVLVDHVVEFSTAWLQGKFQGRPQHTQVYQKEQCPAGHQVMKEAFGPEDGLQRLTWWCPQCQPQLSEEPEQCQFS
# Description: Inhibition of NEIL2 by quantifying inhibition of NEIL2-mediated cleavage and dissociation of quenched duplex DNA oligonucleotides, measured as fluorescence at 594 nm.
# [10] = molecular target: T4, Endonuclease III-like protein 1 (Homo sapiens) (UniProt P78549); settings: Compound Concentration 10.0 uM;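 further: enzyme assay tracking NTHL1 cutting and release of a quenched double-stranded DNA oligo substrate, read as fluorescence at 594 nm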
# T4 sequence (whole entry): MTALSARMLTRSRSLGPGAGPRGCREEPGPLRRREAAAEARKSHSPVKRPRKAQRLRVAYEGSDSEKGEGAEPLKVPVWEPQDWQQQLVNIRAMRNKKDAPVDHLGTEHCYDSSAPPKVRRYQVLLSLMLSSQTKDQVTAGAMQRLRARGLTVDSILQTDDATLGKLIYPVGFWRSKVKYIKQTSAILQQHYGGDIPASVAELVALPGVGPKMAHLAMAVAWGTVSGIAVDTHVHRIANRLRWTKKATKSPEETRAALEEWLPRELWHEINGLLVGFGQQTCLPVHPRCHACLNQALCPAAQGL
# Description: Inhibition of NTHL1 by quantifying inhibition of NTHL1-mediated cleavage and dissociation of quenched duplex DNA oligonucleotides, measured as fluorescence at 594 nm.
# Uracil-DNA glycosylase (Homo sapiens), sequence (P13051 whole entry): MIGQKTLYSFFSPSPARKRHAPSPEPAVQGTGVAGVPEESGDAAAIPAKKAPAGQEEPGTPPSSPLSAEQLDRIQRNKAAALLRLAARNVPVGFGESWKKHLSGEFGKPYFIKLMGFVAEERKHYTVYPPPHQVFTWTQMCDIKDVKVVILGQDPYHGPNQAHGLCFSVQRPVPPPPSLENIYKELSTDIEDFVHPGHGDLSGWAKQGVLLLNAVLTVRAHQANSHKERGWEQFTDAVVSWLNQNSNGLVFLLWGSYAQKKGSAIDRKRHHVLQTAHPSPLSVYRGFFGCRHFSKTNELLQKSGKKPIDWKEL
SMILES,inhibition [1],inhibition ([2]; Hit No),inhibition ([3]; Hit No),inhibition [4],inhibition ([5]; Hit No),inhibition ([6]; Hit No),inhibition [7],inhibition [8],inhibition [9],inhibition ([10]; Hit No),inhibition ([5]; Hit Yes),inhibition ([2]; Hit Yes),inhibition ([3]; Hit Yes),inhibition ([6]; Hit Yes),inhibition ([10]; Hit Yes)
Cc1ccc2c(c1CCC(=O)O)CC[C@@H](NS(=O)(=O)c1ccc(Cl)cc1)C2,-7.64%,18%,16.2%,11.8%,10%,4.86%,33.4%,5.13%,1.01%,15.1%,–,–,–,–,–
N#Cc1c(O)nc(SCc2cccc(F)c2F)nc1C1CC1,-3.9%,26.8%,31%,5.35%,21.3%,14.3%,43.4%,-3.76%,6.5%,17.3%,–,–,–,–,–
CCOC(=O)c1c(C)[nH]c2ccc3c(c12)CN1CCc2cc(OC)ccc2C1O3 (stereo not given),-1.04%,29.8%,29.1%,18.6%,32.3%,8.69%,18.2%,-0.0556%,3.01%,-1.01%,–,–,–,–,–
O=C(c1cc(C2CC2)on1)N(C1CCCCC1)C1CCCCC1,-1.05%,14.9%,8.05%,42.7%,0.0968%,-5.04%,24.8%,0.306%,-3.92%,10.5%,–,–,–,–,–
Cc1cc(C)c(N)c(C#Cc2cccc(F)c2)n1,-6.05%,17.2%,6.71%,3.92%,4.23%,6.75%,4.63%,0.982%,5.26%,-3.21%,–,–,–,–,–
COc1cc(Br)c(S(=O)(=O)Nc2ccc(C(F)(F)F)c(O[C@@H]3CCN(C)C3)c2)cc1OC,-6.21%,-0.305%,-1.76%,-9.93%,-7.69%,-0.0706%,-3.82%,-6.66%,-4.68%,13.8%,–,–,–,–,–
CC(C)(C)C1CCc2c(sc(NC(=O)c3ccco3)c2C(=O)O)C1 (stereo not given),-0.0242%,25.9%,32.2%,-0.565%,36.3%,-0.636%,30.5%,4.9%,17.7%,33.6%,–,–,–,–,–
O=C(NNC(=O)c1ccc(CNS(=O)(=O)c2ccc(F)c(Cl)c2)cc1)c1ccccc1,-0.108%,16.4%,27%,9.45%,13.2%,13.3%,22.1%,3.71%,-6.97%,4.7%,–,–,–,–,–
Nc1ncnc2c1ncn2[C@@H]1O[C@H](COP(=O)(O)OP(=O)(O)O)[C@@H](O)[C@H]1O,-1.19%,26.4%,10.8%,-6.47%,-9.66%,-0.127%,18.3%,8.75%,1.69%,11.3%,–,–,–,–,–
FC(F)(F)Oc1ccc(-c2ccc3nnc(C(F)(F)F)n3c2)cc1,-4.54%,-4.99%,3.41%,7.52%,-7.36%,-3.97%,-0.755%,0.158%,-5.19%,27.8%,–,–,–,–,–
CNC1(C)C2CCC(C2)C1(C)C (stereo not given),-5.36%,10.2%,-0.892%,6.27%,-5.59%,1.51%,-4.75%,-4.14%,-4.94%,-2.73%,–,–,–,–,–
Cc1nc(-c2ccc(C(F)(F)F)cc2)sc1COc1ccc([C@H](CC(=O)O)c2ccon2)cc1,-5.51%,27%,20.8%,3.92%,–,7.09%,23.2%,3.95%,2.26%,16.6%,41.1%,–,–,–,–
CCc1nnc(NS(=O)(=O)c2ccc(NC(=S)NC(=O)/C=C/c3ccc(F)cc3)cc2)s1,3.3%,49.8%,48%,31.8%,12.1%,24.8%,54.8%,-4.5%,9.5%,23.2%,–,–,–,–,–
O=C(NS(=O)(=O)N1CCC1)c1cc(C2CC2)c(OCC23CC4CC(CC(C4)C2)C3)cc1F,7.9%,–,–,60.8%,–,–,93%,7.57%,17.5%,–,93.6%,79.6%,87.3%,98.5%,56.7%
COc1ccc(/C=C/CCCCOc2ccc(C(=O)c3cccc(C(=O)O)c3)cc2CCC(=O)O)cc1,-7.57%,43.2%,49.9%,15.9%,–,12.1%,28.6%,-0.204%,15.7%,2.66%,42.4%,–,–,–,–
CCOC(=O)N1CCC(c2cc(O)n3nc(C)c(-c4ccc(F)cc4)c3n2)CC1,-0.428%,48.9%,40.6%,38.1%,-3.67%,6.03%,75.7%,5.34%,2.71%,11.3%,–,–,–,–,–
Clc1ccccc1C(c1ccccc1)(c1ccccc1)n1cccn1,-9.12%,10.7%,5.21%,-4.99%,-9.77%,-6.62%,23.9%,5.94%,-6.46%,15.4%,–,–,–,–,–
COc1cccc2c1c(NS(=O)(=O)c1ccc(Cl)s1)nn2Cc1cccc(CNC(=O)C(C)(C)O)c1,-8.69%,0.908%,19.3%,-4.44%,-5.21%,-4.59%,7.32%,-1.47%,1.18%,8%,–,–,–,–,–
O=C(O)c1ccccc1S(=O)(=O)NCCCCN1C(=O)c2cccc3cccc(c23)C1=O,-8.5%,16.1%,12%,3.23%,2.55%,12.5%,23.6%,8.25%,8%,-8.34%,–,–,–,–,–
NCC(O)c1ccc(O)cc1 (stereo not given),0.665%,14.3%,41.7%,13.2%,-0.921%,16%,17.4%,3.71%,2.96%,2.22%,–,–,–,–,–
COc1ccc(-c2csc(NC(=O)[C@H]3CCCCN3S(=O)(=O)c3ccc(C)cc3)n2)cc1,-6.47%,5.87%,10.3%,12%,-5.94%,12.1%,11.1%,4.6%,3.47%,22%,–,–,–,–,–
